Experimental data taken from patent publication US20120129842A1, “BISTHIAZOLE INHIBITORS OF PRO-MATRIX METALLOPROTEINASE ACTIVATION” (priority 2010, published 2012).

Columns and labels:
[1] = target: T1, proMMP9(20-445;ΔFnII) (SEQ ID NO:6) (Homo sapiens, UniProt P14780, DEL216-390); experiment: ThermoFluor binding assay with proMMP9(20-445;ΔFnII); settings: pH 7.0
T1 construct: start methionine (N); made in house; host or cells: E. coli BL21(DE3) RIL
T1 sequence (P14780 with tags, fused parts or gaps DEL216-390): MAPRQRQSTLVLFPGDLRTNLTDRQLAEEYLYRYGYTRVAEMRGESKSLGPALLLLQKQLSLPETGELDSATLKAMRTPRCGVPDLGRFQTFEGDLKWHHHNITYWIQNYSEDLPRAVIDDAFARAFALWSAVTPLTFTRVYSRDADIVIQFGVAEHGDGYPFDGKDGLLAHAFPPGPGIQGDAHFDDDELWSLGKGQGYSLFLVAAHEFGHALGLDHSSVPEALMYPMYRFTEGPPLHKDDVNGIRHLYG
Method in brief: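 proMMP9(20-445;ΔFnII) at 2.8 μM with 50 μM 1,8-ANS in 50 mM HEPES pH 7.0, 100 mM NaCl, 0.001% Tween-20, 2.5 mM MgCl2, 300 μM CaCl2; compounds serially diluted in DMSO. Heated 40–90 °C at 1 °C/min, fluorescence read at 500±25 nm. Tm fit by standard equations; binding fit using DSC/TF-derived thermodynamic parameters.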

MMP9 = target: T2, MMP9 (Rattus norvegicus, UniProt P50282); experiment: Pro and active MMP9 in ankles of rats with SCW-induced arthritis by Western blot; type: in vivo; settings: Day 26, four hours after AM dose, mAb-L51/82, FIG. 3A
T2 construct: Pro and active MMP9 were abundantly present in ankles of SCW-induced vehicle-treated rats; from tissue; host or cells: ankle (tibia-tarsus joint) homogenates of female Lewis rats
Experimental: Hind-limbs were skinned, severed just above the tibia-tarsus joint and below the metatarsals, and the tibia-tarsus joints (ankles) were weighed, snap frozen and pulverized on dry ice using a hammer and anvil. The pulverized tissue was suspended in 3 volumes (w:v) of ice-cold homogenization buffer containing 50 mM Tris pH 7.5, 150 mM NaCl, 5 mM EDTA, 1% Triton X100, 0.05% Brij 30, 10% dimethylsulfoxide and Complete EDTA-free Protease Inhibitor Cocktail (Roche Diagnostics). The suspended tissue was homogenized sequentially with a Kinematica AG Polytron and a Dounce homogenizer. Homogenates were centrifuged at 16,000×g for 10 min at 4° C. and the soluble fractions were saved. Dimethylsulfoxide was removed from a portion of each soluble fraction using PD MiniTrap™ G-25 desalting columns (GE Healthcare). Homogenates (0.25 mL), free of DMSO, were diluted with an equal volume of binding buffer (i.e., homogenization buffer without dimethylsufoxide) and adjusted to contain 50 μL of a 50% slurry of gelatin-conjugated sepharose. Following 2 hours of rotation at 4° C. the beads were washed twice in binding buffer and eluted in 100 μL 2×-reducing Laemmli buffer with heating to 95° C. for 5 minutes. […]

T2 sequence (P50282 108-708): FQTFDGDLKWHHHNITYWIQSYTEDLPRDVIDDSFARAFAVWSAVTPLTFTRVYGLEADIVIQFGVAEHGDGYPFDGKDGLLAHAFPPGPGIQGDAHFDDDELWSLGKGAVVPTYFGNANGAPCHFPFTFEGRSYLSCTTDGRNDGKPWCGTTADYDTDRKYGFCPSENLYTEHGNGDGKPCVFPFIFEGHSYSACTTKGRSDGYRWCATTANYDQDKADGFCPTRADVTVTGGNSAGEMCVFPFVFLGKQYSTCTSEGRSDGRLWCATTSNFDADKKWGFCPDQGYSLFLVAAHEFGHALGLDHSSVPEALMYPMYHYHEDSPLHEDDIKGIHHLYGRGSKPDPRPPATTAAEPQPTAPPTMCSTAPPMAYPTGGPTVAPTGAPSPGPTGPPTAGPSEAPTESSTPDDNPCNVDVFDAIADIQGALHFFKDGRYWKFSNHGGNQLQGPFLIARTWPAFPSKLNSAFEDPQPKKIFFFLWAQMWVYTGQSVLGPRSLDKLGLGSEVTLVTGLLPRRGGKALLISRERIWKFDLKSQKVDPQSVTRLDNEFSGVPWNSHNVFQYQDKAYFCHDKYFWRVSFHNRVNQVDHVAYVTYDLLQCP

Which Kd [1] does the source give for Cc1nc(C)c(-c2csc(Nc3cc(S(N)(=O)=O)ccc3OC(C)C)n2)s1 [Example 64, 3-(2′,4′-Dimethyl-[4,5′]bithiazolyl-2-ylamino)-4-isopropoxy-benzenesulfonamide.HBr] here?
Its Kd is 100 nM.

What about the “abundance of proMMP9 in ankles” value (MMP9) of the same compound?
The value was “did not reduce the abundance of proMMP9”.
